Seven compounds from patent publication US9340590B2 (priority 2011, dated 2016) can be followed below.

Common to all, as to test: cell-based
Test [1] concerns the target T1, hNav1.7 (Homo sapiens, UniProt Q15858). In kind it is cell-based.
The next test addresses hNav1.3 (Homo sapiens, UniProt Q9NY46). The conditions noted are these: IonWorks Quattro; clamped to −110 mV, depolarized to −10 mV, 5 min after compound; n=2; read-out: IWQ Use Nav1.3.
For test [2], the target named is T2, hNav1.5 (Homo sapiens, UniProt Q14524).
T2 sequence (Q14524 whole entry, looked up): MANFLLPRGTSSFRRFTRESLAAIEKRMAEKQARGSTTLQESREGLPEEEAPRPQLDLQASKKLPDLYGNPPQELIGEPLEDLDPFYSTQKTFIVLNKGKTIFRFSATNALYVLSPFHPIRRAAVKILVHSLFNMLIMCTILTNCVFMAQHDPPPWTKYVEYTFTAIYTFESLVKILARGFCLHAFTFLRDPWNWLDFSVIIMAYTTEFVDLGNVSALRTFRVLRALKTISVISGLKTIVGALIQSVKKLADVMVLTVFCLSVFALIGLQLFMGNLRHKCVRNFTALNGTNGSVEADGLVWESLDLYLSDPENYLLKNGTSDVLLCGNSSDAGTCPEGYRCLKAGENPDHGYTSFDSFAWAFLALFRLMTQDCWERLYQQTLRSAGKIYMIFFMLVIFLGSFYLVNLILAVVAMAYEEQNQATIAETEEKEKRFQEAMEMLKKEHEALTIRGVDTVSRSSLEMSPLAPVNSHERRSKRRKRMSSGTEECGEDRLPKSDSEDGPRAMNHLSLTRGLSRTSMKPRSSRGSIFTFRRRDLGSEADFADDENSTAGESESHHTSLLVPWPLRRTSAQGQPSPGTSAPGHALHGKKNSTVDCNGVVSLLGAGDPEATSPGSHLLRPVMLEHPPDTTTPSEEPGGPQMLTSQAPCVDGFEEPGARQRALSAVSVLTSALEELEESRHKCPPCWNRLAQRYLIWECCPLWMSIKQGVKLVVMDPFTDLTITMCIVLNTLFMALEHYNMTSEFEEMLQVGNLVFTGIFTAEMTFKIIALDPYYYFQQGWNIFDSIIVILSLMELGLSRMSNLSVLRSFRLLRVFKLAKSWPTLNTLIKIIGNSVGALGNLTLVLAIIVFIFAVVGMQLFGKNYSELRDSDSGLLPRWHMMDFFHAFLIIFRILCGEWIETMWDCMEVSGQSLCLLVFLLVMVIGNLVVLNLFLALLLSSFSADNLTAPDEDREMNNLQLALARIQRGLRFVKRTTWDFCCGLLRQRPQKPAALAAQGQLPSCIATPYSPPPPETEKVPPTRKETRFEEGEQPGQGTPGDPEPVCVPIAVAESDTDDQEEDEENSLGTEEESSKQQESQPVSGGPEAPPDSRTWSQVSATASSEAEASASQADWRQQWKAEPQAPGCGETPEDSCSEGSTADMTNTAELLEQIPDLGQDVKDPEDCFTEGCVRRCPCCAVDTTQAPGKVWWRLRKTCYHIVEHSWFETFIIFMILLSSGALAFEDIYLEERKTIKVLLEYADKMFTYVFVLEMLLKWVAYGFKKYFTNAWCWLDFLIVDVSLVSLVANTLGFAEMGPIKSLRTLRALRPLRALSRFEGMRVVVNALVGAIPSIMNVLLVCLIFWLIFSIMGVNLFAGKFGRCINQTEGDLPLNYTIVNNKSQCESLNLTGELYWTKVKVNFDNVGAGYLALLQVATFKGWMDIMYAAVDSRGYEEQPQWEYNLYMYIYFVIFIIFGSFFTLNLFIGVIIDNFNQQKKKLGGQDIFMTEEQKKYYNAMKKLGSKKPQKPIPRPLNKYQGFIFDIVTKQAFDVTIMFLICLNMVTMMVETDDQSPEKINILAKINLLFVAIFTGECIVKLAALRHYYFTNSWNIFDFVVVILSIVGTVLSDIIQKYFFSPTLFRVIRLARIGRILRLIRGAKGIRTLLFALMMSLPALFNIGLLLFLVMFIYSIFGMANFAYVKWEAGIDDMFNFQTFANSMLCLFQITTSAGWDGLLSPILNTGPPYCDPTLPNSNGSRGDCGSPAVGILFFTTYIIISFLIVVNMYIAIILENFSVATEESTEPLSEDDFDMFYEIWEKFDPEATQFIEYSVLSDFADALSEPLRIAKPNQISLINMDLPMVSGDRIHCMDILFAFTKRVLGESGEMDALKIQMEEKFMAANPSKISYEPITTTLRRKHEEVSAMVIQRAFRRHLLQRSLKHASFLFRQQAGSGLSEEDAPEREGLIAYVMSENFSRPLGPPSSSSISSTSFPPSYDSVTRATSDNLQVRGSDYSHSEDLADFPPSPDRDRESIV
Test [3] has as its target T2, hNav1.5. The conditions noted are these: IonWorks Quattro; clamped to −110 mV, depolarized to −10 mV, 5 min after compound; n=2; read-out: IWQ Use Nav1.5. (In patch-clamp work, channel activity is measured electrically.)
Test [4] deals with T1, hNav1.7. The settings on record: Nav1.7 Use IC50.
Setting [5] is: IonWorks Quattro, clamped to −110 mV, depolarized to −10 mV, 5 min after compound, n=2, read-out: IWQ Use Nav1.7.

Like-named read-outs stand apart in the source and are kept apart here. Positions of bridges follow the written chain, without caps; N, C: chain ends. Non-standard residues stand in square brackets, D forms with d. Residues, ends and D or L forms follow the SMILES beside them. Lys(Me2) = CN(C)CCCC[C@H](N)C(=O)O

Sequence of hNav1.3 (Q9NY46 whole entry, looked up): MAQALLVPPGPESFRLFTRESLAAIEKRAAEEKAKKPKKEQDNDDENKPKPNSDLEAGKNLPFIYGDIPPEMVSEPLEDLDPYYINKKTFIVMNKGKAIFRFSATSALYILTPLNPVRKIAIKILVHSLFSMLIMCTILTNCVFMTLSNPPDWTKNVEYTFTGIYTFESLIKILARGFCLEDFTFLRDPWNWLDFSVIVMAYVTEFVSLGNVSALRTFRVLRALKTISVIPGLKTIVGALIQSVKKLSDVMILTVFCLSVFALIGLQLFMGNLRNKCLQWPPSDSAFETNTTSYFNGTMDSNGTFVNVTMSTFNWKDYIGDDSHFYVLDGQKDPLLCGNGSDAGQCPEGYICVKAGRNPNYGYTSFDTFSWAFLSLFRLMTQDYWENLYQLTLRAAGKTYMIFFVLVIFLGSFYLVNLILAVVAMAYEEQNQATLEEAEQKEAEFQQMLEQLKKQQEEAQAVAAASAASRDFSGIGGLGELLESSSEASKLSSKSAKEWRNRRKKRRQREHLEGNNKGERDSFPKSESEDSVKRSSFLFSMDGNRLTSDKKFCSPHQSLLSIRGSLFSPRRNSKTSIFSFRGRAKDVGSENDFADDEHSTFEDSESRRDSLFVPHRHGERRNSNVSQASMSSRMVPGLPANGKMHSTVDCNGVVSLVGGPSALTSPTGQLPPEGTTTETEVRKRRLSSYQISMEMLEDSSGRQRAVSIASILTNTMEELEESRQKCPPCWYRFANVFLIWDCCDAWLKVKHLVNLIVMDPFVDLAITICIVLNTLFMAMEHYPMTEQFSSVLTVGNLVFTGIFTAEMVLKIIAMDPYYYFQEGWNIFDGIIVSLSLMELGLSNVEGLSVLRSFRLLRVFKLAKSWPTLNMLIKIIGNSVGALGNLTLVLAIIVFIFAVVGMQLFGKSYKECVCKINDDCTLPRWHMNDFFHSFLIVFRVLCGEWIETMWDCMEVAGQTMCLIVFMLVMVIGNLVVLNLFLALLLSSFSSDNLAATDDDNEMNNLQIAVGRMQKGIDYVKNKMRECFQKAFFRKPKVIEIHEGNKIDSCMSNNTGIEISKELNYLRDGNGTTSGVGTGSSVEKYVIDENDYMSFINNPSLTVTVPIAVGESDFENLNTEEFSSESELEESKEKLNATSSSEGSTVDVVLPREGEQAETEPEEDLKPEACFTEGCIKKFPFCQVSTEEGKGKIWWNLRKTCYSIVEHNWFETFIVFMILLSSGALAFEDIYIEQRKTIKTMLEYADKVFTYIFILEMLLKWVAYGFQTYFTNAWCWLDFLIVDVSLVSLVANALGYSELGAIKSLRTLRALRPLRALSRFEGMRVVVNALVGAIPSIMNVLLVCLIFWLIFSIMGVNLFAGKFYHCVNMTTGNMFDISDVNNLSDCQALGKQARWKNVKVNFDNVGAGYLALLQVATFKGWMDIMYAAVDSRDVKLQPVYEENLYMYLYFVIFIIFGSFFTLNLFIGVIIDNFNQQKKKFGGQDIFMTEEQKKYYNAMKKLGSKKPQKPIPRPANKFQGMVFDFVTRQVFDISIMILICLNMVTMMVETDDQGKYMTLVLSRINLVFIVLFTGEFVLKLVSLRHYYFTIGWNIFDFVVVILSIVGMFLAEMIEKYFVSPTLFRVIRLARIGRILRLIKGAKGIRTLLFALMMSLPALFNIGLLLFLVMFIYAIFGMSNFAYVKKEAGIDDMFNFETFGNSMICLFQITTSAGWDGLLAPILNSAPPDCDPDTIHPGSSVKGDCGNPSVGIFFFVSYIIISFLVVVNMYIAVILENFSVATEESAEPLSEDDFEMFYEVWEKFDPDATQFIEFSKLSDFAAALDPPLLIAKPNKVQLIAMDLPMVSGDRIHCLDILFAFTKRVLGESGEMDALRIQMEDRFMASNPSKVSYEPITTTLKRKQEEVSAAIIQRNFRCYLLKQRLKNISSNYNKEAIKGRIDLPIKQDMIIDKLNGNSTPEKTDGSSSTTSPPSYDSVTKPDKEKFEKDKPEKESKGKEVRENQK

On to `CC[C@H](C)[C@@H]1NC(=O)[C@@H]2CSSC[C@@H]3NC(=O)[C@H](C(C)C)NC(=O)[C@H](CC(C)C)NC(=O)[C@H](CC(N)=O)NC(=O)[C@@H]4CCCN4C(=O)[C@H](CCCNC(=N)N)NC(=O)[C@H](CSSC[C@H](NC(=O)[C@@H](N)CC(=O)O)C(=O)N[C@@H](CC(C)C)C(=O)N[C@@H](CCCCN)C(=O)N[C@@H](Cc4ccccc4)C(=O)N[C@@H](CCSC)C(=O)N[C@@H](CCCNC(=N)N)C(=O)N[C@@H](CCCCN)C(=O)N2)NC(=O)[C@H](CSSC[C@@H](C(=O)N[C@@H](CCCCN)C(=O)N[C@@H](Cc2ccc(O)cc2)C(=O)N[C@H](C(=O)N[C@@H](Cc2ccccc2)C(N)=O)C(C)C)NC(=O)[C@H](Cc2c[nH]c4ccccc24)NC(=O)[C@H](CCCCN)NC(=O)[C@H](Cc2cnc[nH]2)NC(=O)[C@H]([C@@H](C)O)NC(=O)[C@H](CCCNC(=N)N)NC(=O)[C@H](CO)NC3=O)NC(=O)[C@H](CCCCN)NC(=O)[C@H](CC(=O)O)NC(=O)[C@H](CC(N)=O)NC(=O)[C@H](CC(=O)O)NC(=O)[C@@H]2CCCN2C1=O` [SEQ ID NO: 39] (H-DCLKFMRKCIPDNDKCCRPNLVCSRTHKWCKYVF-NH2; disulfide 2-17, 9-23, 16-30), for which the IC50 was determined as 200 nM against hNav1.7 [1], 180 nM on hNav1.3, 10600 nM on hNav1.5 [2] and 9820 nM on hNav1.5 [3].
The matching figures for `CC[C@H](C)[C@@H]1NC(=O)[C@@H]2CSSC[C@@H]3NC(=O)[C@H](C(C)C)NC(=O)[C@H](CC(C)C)NC(=O)[C@H](CC(N)=O)NC(=O)[C@@H]4CCCN4C(=O)[C@H](CCCNC(=N)N)NC(=O)[C@H](CSSC[C@H](NC(=O)[C@@H](N)CC(=O)O)C(=O)N[C@@H](CC(C)C)C(=O)N[C@@H](CCCNC(=N)N)C(=O)N[C@@H](Cc4ccccc4)C(=O)N[C@@H](CCSC)C(=O)N[C@@H](CCCNC(=N)N)C(=O)N[C@@H](CCCCN)C(=O)N2)NC(=O)[C@H](CSSC[C@@H](C(=O)N[C@@H](CCCCN)C(=O)N[C@@H](Cc2ccc(O)cc2)C(=O)N[C@H](C(=O)N[C@@H](Cc2ccccc2)C(N)=O)C(C)C)NC(=O)[C@H](Cc2c[nH]c4ccccc24)NC(=O)[C@H](CCCCN)NC(=O)[C@H](Cc2cnc[nH]2)NC(=O)[C@H]([C@@H](C)O)NC(=O)[C@H](CCCNC(=N)N)NC(=O)[C@H](CO)NC3=O)NC(=O)[C@H](CCCCN)NC(=O)[C@H](CC(=O)O)NC(=O)[C@H](CC(N)=O)NC(=O)[C@H](CC(=O)O)NC(=O)[C@@H]2CCCN2C1=O` [SEQ ID NO: 63] (H-DCLRFMRKCIPDNDKCCRPNLVCSRTHKWCKYVF-NH2; disulfide 2-17, 9-23, 16-30): 210 nM, 230 nM, 5000 nM and 20100 nM.
Consider `CC[C@H](C)[C@@H]1NC(=O)CNC(=O)[C@H](CC(C)C)NC(=O)[C@@H](NC(=O)[C@@H](N)CC(=O)O)CSSC[C@@H]2NC(=O)[C@@H]3CSSC[C@@H](C(=O)N[C@@H](CCCCN)C(=O)N[C@@H](Cc4ccc(O)cc4)C(=O)N[C@H](C(=O)N[C@@H](Cc4ccccc4)C(N)=O)C(C)C)NC(=O)[C@H](Cc4c[nH]c5ccccc45)NC(=O)[C@H](CCCCN)NC(=O)[C@H](Cc4cnc[nH]4)NC(=O)[C@H]([C@@H](C)O)NC(=O)[C@H](CCCNC(=N)N)NC(=O)[C@H](CO)NC(=O)[C@H](CSSC[C@H](NC(=O)[C@H](CCCCN)NC(=O)[C@H](CCCNC(=N)N)NC(=O)[C@H](CCSC)NC1=O)C(=O)N[C@@H]([C@@H](C)CC)C(=O)N1CCC[C@H]1C(=O)N[C@@H](CC(=O)O)C(=O)N[C@@H](CC(N)=O)C(=O)N[C@@H](CC(=O)O)C(=O)N[C@@H](CCCCN)C(=O)N3)NC(=O)[C@H](C(C)C)NC(=O)[C@H](CC(C)C)NC(=O)[C@H](CC(N)=O)NC(=O)[C@@H]1CCCN1C(=O)[C@H](CCCNC(=N)N)NC2=O` [SEQ ID NO: 88] (H-DCLGIMRKCIPDNDKCCRPNLVCSRTHKWCKYVF-NH2; disulfide 2-17, 9-23, 16-30), for which the IC50 worked out at 360 nM at hNav1.7 [1] (setting [5]), 620 nM on hNav1.3, 6650 nM at hNav1.5 [3] and 2 nM against hNav1.7 [4].
Consider `CC[C@H](C)[C@@H]1NC(=O)[C@@H]2CSSC[C@@H]3NC(=O)[C@H](C(C)C)NC(=O)[C@H](CC(C)C)NC(=O)[C@H](CC(N)=O)NC(=O)[C@@H]4CCCN4C(=O)[C@H](CCCNC(=N)N)NC(=O)[C@H](CSSC[C@H](N)C(=O)N[C@@H](CC(C)C)C(=O)NCC(=O)N[C@@H](Cc4ccccc4)C(=O)N[C@@H](CCSC)C(=O)N[C@@H](CCCNC(=N)N)C(=O)N[C@@H](CCCCN)C(=O)N2)NC(=O)[C@H](CSSC[C@@H](C(=O)N[C@@H](CCCCN)C(=O)N[C@@H](Cc2ccc(O)cc2)C(=O)N[C@H](C(=O)N[C@@H](Cc2ccccc2)C(N)=O)C(C)C)NC(=O)[C@H](Cc2c[nH]c4ccccc24)NC(=O)[C@H](CCCCN)NC(=O)[C@H](Cc2c[nH]cn2)NC(=O)[C@H]([C@@H](C)O)NC(=O)[C@H](CCCNC(=N)N)NC(=O)[C@H](CO)NC3=O)NC(=O)[C@H](CCCCN)NC(=O)[C@H](CC(=O)O)NC(=O)[C@H](CC(N)=O)NC(=O)[C@H](CC(=O)O)NC(=O)[C@@H]2CCCN2C1=O` [SEQ ID NO: 108] (H-CLGFMRKCIPDNDKCCRPNLVCSRTHKWCKYVF-NH2; disulfide 1-16, 8-22, 15-29), for which the IC50 on hNav1.7 [1] (setting [5]) was 70 nM; at hNav1.5 [2] (read-out: Nav1.5 Use IC50) it was 4940 nM.
Regarding `CC[C@H](C)[C@@H]1NC(=O)[C@@H]2CSSC[C@@H]3NC(=O)[C@H](C(C)C)NC(=O)[C@H](CC(C)C)NC(=O)[C@H](CC(N)=O)NC(=O)[C@@H]4CCCN4C(=O)[C@H](CCCNC(=N)N)NC(=O)[C@H](CSSC[C@H](NC(=O)[C@@H](N)CC(=O)O)C(=O)N[C@@H](CC(C)C)C(=O)NCC(=O)N[C@@H](CC(C)C)C(=O)N[C@@H](CCSC)C(=O)N[C@@H](CCCNC(=N)N)C(=O)N[C@@H](CCCCN)C(=O)N2)NC(=O)[C@H](CSSC[C@@H](C(=O)N[C@@H](CCCCN)C(=O)N[C@@H](Cc2ccc(O)cc2)C(=O)N[C@H](C(=O)N[C@@H](Cc2ccccc2)C(N)=O)C(C)C)NC(=O)[C@H](Cc2c[nH]c4ccccc24)NC(=O)[C@H](CCCCN)NC(=O)[C@H](Cc2cnc[nH]2)NC(=O)[C@H]([C@@H](C)O)NC(=O)[C@H](CCCNC(=N)N)NC(=O)[C@H](CO)NC3=O)NC(=O)[C@H](CCCCN)NC(=O)[C@H](CC(=O)O)NC(=O)[C@H](CC(N)=O)NC(=O)[C@H](CC(=O)O)NC(=O)[C@@H]2CCCN2C1=O` [SEQ ID NO: 267] (H-DCLGLMRKCIPDNDKCCRPNLVCSRTHKWCKYVF-NH2; disulfide 2-17, 9-23, 16-30), the IC50 on hNav1.7 [1] is 170 nM; at hNav1.3, 300 nM; at hNav1.5 [3], 7400 nM; against hNav1.7 [4], 7 nM.
In the case of `CC[C@H](C)[C@@H]1NC(=O)[C@@H]2CSSC[C@@H]3NC(=O)[C@H](C(C)C)NC(=O)[C@H](CC(C)C)NC(=O)[C@H](CC(N)=O)NC(=O)[C@@H]4CCCN4C(=O)[C@H](CCCNC(=N)N)NC(=O)[C@H](CSSC[C@H](NC(=O)[C@@H](N)CC(=O)O)C(=O)N[C@@H](CC(C)C)C(=O)NCC(=O)N[C@@H](C(C)C)C(=O)N[C@@H](CCSC)C(=O)N[C@@H](CCCNC(=N)N)C(=O)N[C@@H](CCCCN)C(=O)N2)NC(=O)[C@H](CSSC[C@@H](C(=O)N[C@@H](CCCCN)C(=O)N[C@@H](Cc2ccc(O)cc2)C(=O)N[C@H](C(=O)N[C@@H](Cc2ccccc2)C(N)=O)C(C)C)NC(=O)[C@H](Cc2c[nH]c4ccccc24)NC(=O)[C@H](CCCCN)NC(=O)[C@H](Cc2cnc[nH]2)NC(=O)[C@H]([C@@H](C)O)NC(=O)[C@H](CCCNC(=N)N)NC(=O)[C@H](CO)NC3=O)NC(=O)[C@H](CCCCN)NC(=O)[C@H](CC(=O)O)NC(=O)[C@H](CC(N)=O)NC(=O)[C@H](CC(=O)O)NC(=O)[C@@H]2CCCN2C1=O` [SEQ ID NO: 272] (H-DCLGVMRKCIPDNDKCCRPNLVCSRTHKWCKYVF-NH2; disulfide 2-17, 9-23, 16-30), the IC50 on hNav1.7 [1] (setting [5]) amounted to 710 nM; at hNav1.3, 1030 nM; on hNav1.5 [3], 13200 nM; against hNav1.7 [4] it was 18 nM.
`CC[C@H](C)[C@@H]1NC(=O)[C@@H]2CSSC[C@@H]3NC(=O)[C@H](C(C)C)NC(=O)[C@H](CC(C)C)NC(=O)[C@H](CC(N)=O)NC(=O)[C@@H]4CCCN4C(=O)[C@H](CCCCN(C)C)NC(=O)[C@H](CSSC[C@H](NC(=O)[C@@H](N)CC(=O)O)C(=O)N[C@@H](CC(C)C)C(=O)NCC(=O)N[C@@H](Cc4ccccc4)C(=O)N[C@@H](CCSC)C(=O)N[C@@H](CCCNC(=N)N)C(=O)N[C@@H](CCCCN)C(=O)N2)NC(=O)[C@H](CSSC[C@@H](C(=O)N[C@@H](CCCCN)C(=O)N[C@@H](Cc2ccc(O)cc2)C(=O)N[C@H](C(=O)N[C@@H](Cc2ccccc2)C(N)=O)C(C)C)NC(=O)[C@H](Cc2c[nH]c4ccccc24)NC(=O)[C@H](CCCCN)NC(=O)[C@H](Cc2cnc[nH]2)NC(=O)[C@H]([C@@H](C)O)NC(=O)[C@H](CCCNC(=N)N)NC(=O)[C@H](CO)NC3=O)NC(=O)[C@H](CCCCN)NC(=O)[C@H](CC(=O)O)NC(=O)[C@H](CC(N)=O)NC(=O)[C@H](CC(=O)O)NC(=O)[C@@H]2CCCN2C1=O` [[K(Me2)18]GpTx-1(1-34)] (H-DCLGFMRKCIPDNDKCC[Lys(Me2)]PNLVCSRTHKWCKYVF-NH2; disulfide 2-17, 9-23, 16-30): the IC50 at hNav1.5 [2] was 10000 nM.
